Reference: patent US10758534B2 (Vertex Pharmaceuticals Incorporated, priority 2014, dated 2020)

Molecular target: T1, F508del (Homo sapiens, UniProt P13569, DEL508-508)
T1 construct: expressed in transfected cells
Experiment: Protocol 2: FRET membrane potential optical assay (VIPR), identification of correction compounds
Type: cell-based
Settings: F508del CFTR modulator activity; compounds of Table 1; read-out: EC30
Outline: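 Corrector readout: membrane-potential FRET (CC2-DMPE donor, DiSBAC2(3) acceptor) on VIPR II after Cl⁻-free gluconate bath with 10 μM forskolin and 20 μM genistein. Before this, F508del-expressing NIH3T3 cells were exposed to test compound for 16 h at 37 °C without serum; 27 °C incubation served as temperature-correction control.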

T1 sequence (P13569 with tags, fused parts or gaps DEL508-508): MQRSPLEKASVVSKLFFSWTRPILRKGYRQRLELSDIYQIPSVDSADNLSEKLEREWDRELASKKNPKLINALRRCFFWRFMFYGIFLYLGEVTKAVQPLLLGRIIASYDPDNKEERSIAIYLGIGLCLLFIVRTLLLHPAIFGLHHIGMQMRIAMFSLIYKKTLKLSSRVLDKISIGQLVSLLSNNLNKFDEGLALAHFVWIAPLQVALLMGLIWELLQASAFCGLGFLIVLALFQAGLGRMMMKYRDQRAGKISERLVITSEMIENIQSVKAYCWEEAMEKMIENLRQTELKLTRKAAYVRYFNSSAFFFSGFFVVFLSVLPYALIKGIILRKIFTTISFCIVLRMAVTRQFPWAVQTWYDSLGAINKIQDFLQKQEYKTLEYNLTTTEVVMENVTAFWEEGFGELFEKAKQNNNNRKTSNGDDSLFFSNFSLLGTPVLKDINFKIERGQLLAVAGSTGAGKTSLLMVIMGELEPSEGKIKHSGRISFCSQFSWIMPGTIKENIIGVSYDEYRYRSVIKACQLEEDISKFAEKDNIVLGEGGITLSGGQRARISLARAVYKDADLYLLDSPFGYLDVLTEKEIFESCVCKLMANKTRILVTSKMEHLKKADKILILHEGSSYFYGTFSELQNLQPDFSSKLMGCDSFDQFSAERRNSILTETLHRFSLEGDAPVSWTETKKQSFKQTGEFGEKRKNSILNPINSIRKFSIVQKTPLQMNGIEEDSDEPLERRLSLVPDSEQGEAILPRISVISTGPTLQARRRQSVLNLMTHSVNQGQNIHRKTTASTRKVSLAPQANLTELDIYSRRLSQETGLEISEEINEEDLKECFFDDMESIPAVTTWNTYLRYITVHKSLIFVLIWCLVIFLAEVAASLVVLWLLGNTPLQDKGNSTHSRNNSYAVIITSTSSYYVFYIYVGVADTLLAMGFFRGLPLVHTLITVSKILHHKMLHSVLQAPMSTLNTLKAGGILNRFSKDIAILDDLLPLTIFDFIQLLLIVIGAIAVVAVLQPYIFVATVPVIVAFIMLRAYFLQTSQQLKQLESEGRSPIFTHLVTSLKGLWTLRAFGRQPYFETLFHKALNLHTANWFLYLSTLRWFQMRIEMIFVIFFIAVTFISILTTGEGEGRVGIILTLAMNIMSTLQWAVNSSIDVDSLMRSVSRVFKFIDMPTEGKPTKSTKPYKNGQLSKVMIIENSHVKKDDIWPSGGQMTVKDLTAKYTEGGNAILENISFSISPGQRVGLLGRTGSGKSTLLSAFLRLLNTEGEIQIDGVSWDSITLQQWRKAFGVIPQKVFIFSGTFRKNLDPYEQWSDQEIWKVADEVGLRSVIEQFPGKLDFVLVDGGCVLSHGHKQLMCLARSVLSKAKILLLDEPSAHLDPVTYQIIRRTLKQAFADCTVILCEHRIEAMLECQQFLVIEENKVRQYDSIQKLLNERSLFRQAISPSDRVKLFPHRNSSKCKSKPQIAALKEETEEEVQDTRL

Structure (SMILES)	EC30
Cc1cc(-c2ccc(C(=O)NS(=O)(=O)c3ccc[nH]c3=O)c(N3C[C@@H](C)CC3(C)C)n2)cc(C)c1O [Compound 2556, 6-(4-hydroxy-3,5-dimethyl-phenyl)-N-[(2-oxo-1H-pyridin-3-yl)sulfonyl]-2-[(4S)-2,2,4-trimethylpyrrolidin-1-yl]pyridine-3-carboxamide]	3000 to 10000 nM
C[C@@H]1CN(c2nc(-c3ccc(C(F)(F)F)cc3)ccc2C(=O)NS(=O)(=O)c2cccc(N)n2)C(C)(C)C1 [Compound 2296, N-[(6-amino-2-pyridyl)sulfonyl]-6-[4-(trifluoromethyl)phenyl]-2-[(4S)-2,2,4-trimethylpyrrolidin-1-yl]pyridine-3-carboxamide]	< 3000 nM
Cc1cccc(Nc2cccc(S(=O)(=O)NC(=O)c3cccnc3N3CC(C)CC3(C)C)n2)c1 (stereo not shown) [Compound 2572, N—[[6-(3-methylanilino)-2-pyridyl]sulfonyl]-2-(2,2,4-trimethylpyrrolidin-1-yl)pyridine-3-carboxamide]	< 3000 nM
CC1CN(c2ncccc2C(=O)NS(=O)(=O)c2cccc(N3CCc4ccccc4C3)n2)C(C)(C)C1 (stereo not shown) [Compound 2098, N—[[6-(3,4-dihydro-1H-isoquinolin-2-yl)-2-pyridyl]sulfonyl]-2-(2,2,4-trimethylpyrrolidin-1-yl)pyridine-3-carboxamide]	< 3000 nM
COC(=O)c1ccc(Oc2cccc(S(=O)(=O)NC(=O)c3cccnc3N3CC(C)CC3(C)C)n2)cc1 (stereo not shown) [Compound 2728]	< 3000 nM
CC1CN(c2ncccc2C(=O)NS(=O)(=O)c2cccc(N3CCOC(C)C3)n2)C(C)(C)C1 (stereo not shown) [Compound 2324, N—[[6-(2-methylmorpholin-4-yl)-2-pyridyl]sulfonyl]-2-(2,2,4-trimethylpyrrolidin-1-yl)pyridine-3-carboxamide]	3000 to 10000 nM
CCOc1cc(C)cc(-c2ccc(C(=O)NS(=O)(=O)c3cc[nH]n3)c(N3C[C@@H](C)CC3(C)C)n2)n1 [Compound 2487, 6-(6-ethoxy-4-methyl-2-pyridyl)-N-(1H-pyrazol-3-ylsulfonyl)-2-[(4S)-2,2,4-trimethylpyrrolidin-1-yl]pyridine-3-carboxamide]	< 3000 nM
CC1CN(c2ncccc2C(=O)NS(=O)(=O)c2cccc(N3CCC(Cc4ccccc4)C3)n2)C(C)(C)C1 (stereo not shown) [Compound 2123, N—[[6-(3-benzylpyrrolidin-1-yl)-2-pyridyl]sulfonyl]-2-(2,2,4-trimethylpyrrolidin-1-yl)pyridine-3-carboxamide]	< 3000 nM

Same assay, conditions: Table 3; compounds of Table 1 as modulators of CFTR activity; protocol not stated

Structure (SMILES)	EC30
COc1ncccc1S(=O)(=O)NC(=O)c1cc2c(nc1Oc1c(C)cc(C)cc1C)C(C)(C)CCC2 [Compound 423, N-[(2-methoxy-3-pyridyl)sulfonyl]-8,8-dimethyl-2-(2,4,6-trimethylphenoxy)-6,7-dihydro-5H-quinoline-3-carboxamide]	+++ (“+++” means <3 uM)
Cc1cc(C)c(Oc2nc(C(C)(C)C)ccc2C(=O)N[S@](=N)(=O)c2cccc(N)c2)c(C)c1 (single isomer, unassigned) [Compound 53, N-[(3-aminophenyl)sulfonimidoyl]-6-tert-butyl-2-(2,4,6-trimethylphenoxy)pyridine-3-carboxamide]	+++ (“+++” means <3 uM)
CC(C)COc1cc(F)cc(-c2ccc(C(=O)NS(=O)(=O)c3ccc[nH]c3=O)c(N3CCC(C)CC3)n2)c1 [Compound 422, 6-(3-fluoro-5-isobutoxy-phenyl)-2-(4-methyl-1-piperidyl)-N-[(2-oxo-1H-pyridin-3-yl)sulfonyl]pyridine-3-carboxamide]	+++ (“+++” means <3 uM)
Cc1cc(C)c(Cn2c(C(=O)NS(=O)(=O)c3cccc(N)c3)cc3c(C#N)cccc32)c(C)c1 [Compound 306, N-(3-aminophenyl)sulfonyl-4-cyano-1-[(2,4,6-trimethylphenyl)methyl]indole-2-carboxamide]	+++ (“+++” means <3 uM)
CC1CCN(c2nc(-c3ccc(OC(C)C)nc3)ccc2C(=O)NS(=O)(=O)c2cccc(N)n2)CC1 [Compound 736, N-[(6-amino-2-pyridyl)sulfonyl]-6-(6-isopropoxy-3-pyridyl)-2-(4-methyl-1-piperidyl)pyridine-3-carboxamide]	+++ (“+++” means <3 uM)
